In BindingDB's records for doi:10.1021/acsmedchemlett.8b00379 (Bristol-Myers Squibb Research and Development, 2018):

What was measured:
[1] = Inhibition of HCV genotype 2a JFH1 NS5B RNA dependent RNA polymerase infected in human HuH7 replicon cells after 3 days by luciferase reporter gene assay
[2] = Inhibition of HCV genotype 1a NS5B RNA dependent RNA polymerase infected in human HuH7 replicon cells after 3 days by luciferase reporter gene assay
[3] = Inhibition of HCV genotype 1b NS5B RNA dependent RNA polymerase infected in human HuH7 replicon cells after 3 days by luciferase reporter gene assay
[4] = Inhibition of HCV genotype 1b NS5B RNA dependent RNA polymerase C316N mutant infected in human HuH7 replicon cells after 3 days by luciferase reporter gene assay

Row | EC50 [1] [µM] | Compound | EC50 [2] [µM] | EC50 [3] [µM] | EC50 [4] [µM]
1 | 0.013 | CCN(c1cc2oc(-c3ccc(F)cc3)c(C(=O)NC)c2cc1-c1ccc(OC)c(C(=O)NC2(c3ncccn3)CC2)c1)S(C)(=O)=O |  |  | 
2 | 0.0066 | CCN(c1cc2oc(-c3ccc(F)cc3)c(C(=O)NC)c2cc1-c1cc(Cl)c(OC)c(C(=O)NC2(c3ncccn3)CC2)c1)S(C)(=O)=O |  |  | 
3 | 0.165 | CCN(C(=O)N(C)C)c1cc2oc(-c3ccc(F)cc3)c(C(=O)NC)c2cc1-c1ccc(OC)c(C(=O)NC2(c3ncccn3)CC2)c1 |  |  | 
4 | 0.015 | CCN(C(=O)OC)c1cc2oc(-c3ccc(F)cc3)c(C(=O)NC)c2cc1-c1ccc(OC)c(C(=O)NC2(c3ncccn3)CC2)c1 |  |  | 
5 | 0.009 | CCN(c1cc2oc(-c3ccc(F)cc3)c(C(=O)NC)c2cc1-c1cc(F)c(F)c(C(=O)NC2(c3ncccn3)CC2)c1)S(C)(=O)=O |  |  | 
6 | 0.0088 | CCN(c1cc2oc(-c3ccc(F)cc3)c(C(=O)NC)c2cc1-c1cc(F)c(OC)c(C(=O)NC2(c3ncccn3)CC2)c1)S(C)(=O)=O |  |  | 
7 | 0.035 | CCN(C(C)=O)c1cc2oc(-c3ccc(F)cc3)c(C(=O)NC)c2cc1-c1ccc(OC)c(C(=O)NC2(c3ncccn3)CC2)c1 |  |  | 
8 | 0.016 | CCN(c1cc2oc(-c3ccc(F)cc3)c(C(=O)NC)c2cc1-c1cc(C)c(OC)c(C(=O)NC2(c3ncccn3)CC2)c1)S(C)(=O)=O |  |  | 

Continued, molecule first:

Row | Compound | EC50 [1] [µM] | EC50 [2] [µM] | EC50 [3] [µM] | EC50 [4] [µM]
9 | CNC(=O)c1c(-c2ccc(F)cc2)oc2ccc(-c3cccc(C(=O)NC4(c5ccccn5)CC4)c3)cc12 | 0.515 | 0.036 | 0.0038 | 0.075
10 | CNC(=O)c1c(-c2ccc(F)cc2)oc2cc(N(CCO)S(C)(=O)=O)c(-c3cccc(C(=O)NC4(c5ccccc5)CC4)c3)cc12 | 0.0086 | 0.0057 | 0.0062 | 0.064
11 | CCN(C(=O)C(F)(F)F)c1cc2oc(-c3ccc(F)cc3)c(C(=O)NC)c2cc1-c1ccc(OC)c(C(=O)NC2(c3ncccn3)CC2)c1 | 0.02 |  |  | 
12 | CCNc1cc2oc(-c3ccc(F)cc3)c(C(=O)NC)c2cc1-c1ccc(OC)c(C(=O)NC2(c3ncccn3)CC2)c1 | 0.012 | 0.0023 | 0.0012 | 0.0036
13 | CCN(c1cc2oc(-c3ccc(F)cc3)c(C(=O)NC)c2cc1-c1cccc(C(=O)NC2(c3ncccn3)CC2)c1)S(C)(=O)=O | 0.0054 | 0.0077 | 0.0088 | 0.044
14 | CNC(=O)c1c(-c2ccc(F)cc2)oc2cc(N(CCO)S(C)(=O)=O)c(-c3cccc(C(=O)NC4(c5ccccn5)CC4)c3)cc12 | 0.022 | 0.035 | 0.052 | 0.385
